Results reported in patent USRE35053E, “Amines useful in producing pharmaceutically active CNS compounds” (The Upjohn Company, priority 1992, dated 1995).
Where a name gives a salt, the structure may show the parent alone.

Key:
arachidonic acid = assay: Arachidonic Acid Antagonism Assay (AAAA); type: in vivo, mouse (Charles River male CF-1); details: mice; for arachidonic acid antagonism (elevation of LD50 of arachidonic acid): IV, 15 min before sodium arachidonate, outside 95% confidence interval of control LD50
How it was run: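 Male CF-1 mice ([…]) received compound IV in 1.0% Tween-80/0.1% HCl in water. LD50 was determined by Spearman-Karber (log dose interval 0.05, N-6); an LD50 raised outside the control 95% confidence interval counted as active.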

[1] = test system: induced mucous secretions; assay: inhibition of mucous secretion assay of Johnson; details: for inhibition of mucous secretion: inhibit or block enhancement of induced mucous secretions; for preferred mucous inhibitors per test results: ranking in words
Source text: The inhibition of mucous secretion assay of Johnson Int. […] According to this procedure compounds which inhibit or block enhancement of induced mucous secretions when tested are considered to be "active".

[2] = test system: conjugated diene formation in rat brain synaptosomes; assay: Conjugated diene formation assay (lipid peroxidation); type: biochemical; details: 100 μM (or less) of the drug, active = 50% inhibition or more
Method: The formation of conjugated dienes as assayed by Braughler. […] Bucher, Fund.
Synaptosomal suspension (10 μl) is added to 1 ml of physiological (normal) saline containing 1% Lubrol PX (Sigma Chemical Co. St. Louis, Mo.). […] The reaction is started by the rapid addition of 200 μM ferrous ammonium sulfate prepared in argon-purged water. The sample is rapidly mixed and the change in absorbance at 232nm is followed in a Gilford Response Spectrophotometer equipped with a rapid sampler. Due to the rapidity of the reaction, rapid addition of the iron, rapid mixing and sampling are obligatory to the accuracy of the assay. For best results absorbance readings of one/sec should be started within 5 sec following the addition of iron. The initial linear rate of absorbance change during the first 30 sec of reaction are compared with the rate of a reaction containing all reagents except synaptosomes. The difference in rates is the rate of conjugated diene formation. Rates with drug are compared to rates obtained in the absence of drug and the % inhibition is calculated.

angiogenesis = assay: fertile egg or chick embryo assay of Folkman (inhibition of angiogenesis / tumor growth); type: in vivo; details: chick embryo
Method: According to this procedure compounds which are considered to be "active" (i.e, antiangiogenic) give an avascular zone of 4 mm or greater in some embryos when tested at 50 μg/10 μl in the presence of 50 μg/10 μ of heparin.

interleukin-1 = assay: inhibition of interleukin-1 induced T cell proliferation assay; type: cell-based
Source text: The inhibition of interleukin-1 induced T cell proliferation assay, Proc. Nat. […] Since people with arthritis make excess interleukin 1, compounds which inhibit the activity of interleukin 1 are useful in the treatment of arthritis. According to this procedure compounds which inhibit the activity of interleukin 1 greater that 30% at 10^-6 M are considered to be "active".

mouse head injury = assay: in vivo mouse head injury procedure of Hall, grip test; details: statistically significant (p<0.05)
[3] = test system: AcylCoA:Cholesterol Acyltransferase (ACAT); assay: AcylCoA:Cholesterol Acyltransferase (ACAT) inhibition Assay; type: cell-based; set-up: key: compounds which inhibit ACAT activity equal to, or greater than, that of chlorpromazine are considered "active"; details: active = equal to or greater than chlorpromazine; Fu5AH cells preferred
Source text: ACAT esterifies arterial cholesterol which is a key reaction in the development of atherosclerosis. The procedure of Bell, Can. J. Blochem. 60. […] In the ACAT assay it is preferred to use Fu5AH cells, see Lipids 9, 526 (1974). According to this procedure, compounds which inhibit ACAT activity equal to, or greater than, that of chlorpromazine are considered "active".

[4] = test system: MDA formation in rat brain synaptosomes; assay: Malonyldialdehyde (MDA) Formation Assay (lipid peroxidation); type: biochemical; details: active = 50% inhibition or more at 200 μM or less
Source text: The MDA assays of Buege and Aust, Methods in Enzymology, Fleisher and Packer Editors. Academic Press, 1978, New York, Vol LII, p 302-310 and Kohn and Liversedge, J. Pharmacol. Exp. Ther. 82. […] Since iipid peroxidation is involved in the pathophysiology of central nervous system trauma, compounds which inhibit MDA formation are useful in treating the conditions listed below.
While not necessary to determine MDA formation, the above assays have been modified as follows: rat brain synaptosomes are prepared as described in the Example about the conjugated diene assay, except that the final wash of the synaptosomes and final suspension are in physiological (normal) saline in which the pH has been adjusted to 7 0. The synaptosomes are incubated for 10 min at 37° in physiological (normal) saline pH 7.0 (total volume=100 ul) containing; 10 ul synaptosomal suspension. 10% DMSO plus or minus drug. 150 uM Fe^+++ and 50 uM Fe^++. The incubation is started by the rapid addition of iron to the otherwise complete reaction. The iron solutions are prepared fresh as ferric chloride and ferrous ammonium sulfate in argon-purged water. Following the 10 min incubation, the reaction is stopped by the addition of 500 ul ice-cold 12% trichloroacetic acid prepared in 0.5 N hydrochloric acid. Water (300 ul) is then added along with 100 ul of freshly prepared thiobarbituric acid (3.3% in 0.5N sodium hydroxide) and 10 ul of 5mM desferrioxamine. The sample is then heated in a boiling water bath for 20 minutes. The samples are cooled and centrifuged for 15 minutes at 1500 xg and the absorbance of the supernatant fraction is read at 532 nm. The % inhibition of MDA formation is calculated by dividing the absorbance of sample containing drug by the absorbance of samples incubated without drug. Reaction blanks are samples incubated in the absence of iron A compound that inhibits MDA formation by 50% or more at a concentration of 200μM or less is considered "active".

| Structure (SMILES) | arachidonic acid antagonism (elevation of LD50 of arachidonic acid) (arachidonic acid) | inhibition of mucous secretion [1] | preferred mucous inhibitors per test results [1] | inhibition of conjugated diene formation [2] | % Increase in 1 hr Post-Injury Grip Test Scores After 3 mg/kg (mouse head injury) | inhibition of ACAT [3] | inhibition of MDA formation [4] | further results |
| --- | --- | --- | --- | --- | --- | --- | --- | --- |
| CS(=O)(=O)O.C[C@]12CCC(=O)C=C1CC[C@@H]1C2=CC[C@@]2(C)[C@H]1CC[C@]2(O)C(=O)CN1CCN(c2ccccn2)CC1 [Example 2, 17α-Hydroxy-21-[4-(2-pyridinyl)-1piperazinyl]pregna-4,9(11)-diene-3,20di-one methanesulfonate] | demonstrate arachidonic acid antagonism | demonstrate such activity | preferred mucous inhibitors | demonstrate such activity | – | – | – | % of Embryos with 4 mm or Greater A vascular Zone (angiogenesis; 50 μg/10 μl in the presence of heparin): 85% |
| C[C@]12CCC(=O)C=C1CC[C@@H]1C2=CC[C@@]2(C)[C@H]1CC[C@]2(O)C(=O)CN1CCOCC1 [Example 93, 17α-hydroxy-21-(4-morpholino)-pregna-4,9(11)-diene-3,20-dione(E)-2-butanedioate (1:1) salt] | demonstrate arachidonic acid antagonism | – | – | – | 134.5% | – | – | % Inhibition at 10^-6 M (interleukin-1; interleukin-1, 10^-6 M): 62% |
| CCN(CC)c1cc(N2CCN(CC(=O)[C@@]3(O)[C@H](C)C[C@H]4[C@@H]5CCC6=CC(=O)C=C[C@]6(C)C5=CC[C@@]43C)CC2)nc(N(CC)CC)n1.Cl.O [Example 18, 21-[4-[2,6-Bis(diethylamino)-4-pyrimidinyl]-1-piperazinyl]-17α-hydroxy-16α-methylpregna-1,4,9(11)-triene-3,20-dione hydrochloride hydrate] | – | demonstrate such activity | – | – | – | active | – | – |
| CCN(CC)c1nc(N2CCCCC2)cc(N2CCN(CC(=O)[C@@]3(O)CC[C@H]4[C@@H]5CCC6=CC(=O)CC[C@]6(C)C5=CC[C@@]43C)CC2)n1.Cl.O [Example 17, 17α-Hydroxy-21-[4-[2-(diethylamino)-6-(1-piperidinyl)-4-pyrimidinyl]-1-piperazinyl]pregna-4,9(11)-diene-3,20-dione hydrochloride hydrate] | – | – | – | – | – | active | demonstrate such activity | % of Control LD50 (arachidonic acid; 100 mg/kg, LD50 of sodium arachidonate): 150% |
| CS(=O)(=O)O.CS(=O)(=O)O.C[C@@H]1C[C@H]2[C@@H]3CCC4=CC(=O)C=C[C@]4(C)C3=CC[C@]2(C)[C@H]1C(=O)CN1CCN(c2cc(N3CCCC3)nc(N3CCCC3)n2)CC1 [Example 83, 16α-Methyl-21-[4-(2,6-bis(1-pyrrolidinyl)-4-pyrimidinyl]-1-piperazinyl]pregna-1,4,9(11)-triene-3,20-dione dimethane-sulfonate] | – | demonstrate such activity | preferred mucous inhibitors | demonstrate such activity | – | – | demonstrate such activity | inhibition of interleukin 1 (interleukin-1; active = >30% at 10^-6 M): demonstrate inhibition of interleukin 1; inhibition of angiogenesis (angiogenesis; 50 μg/10 μl with heparin, avascular zone 4 mm or greater): demonstrate inhibition of angiogenesis |
| CCNc1cccc(N2CCN(CC(=O)[C@H]3[C@H](C)C[C@H]4[C@@H]5CCC6=CC(=O)C=C[C@]6(C)C5=CC[C@@]43C)CC2)n1 [Example 127, 21-[4-[6-(Ethylamino)-2-pyridinyl]piperazinyl]-16α-methylpregna-1,4,9(11)-triene-3,20-dione hydrochloride] | – | – | – | – | 200.8% | – | – | – |
